Patent US11999739B2, “Antimicrobials methods of making and using the same” (BIOVERSYS AG, priority 2016, dated 2024)

Key:
[1] = tested on: Staphylococcus aureus (S. aureus) 11540 strain; assay: Standard microdilution MIC assay, S. aureus; type: cell-based
Procedure: (§1) The in vitro activity of the compounds of the present disclosure can be determined. Antimicrobial testing is typically performed to determine the minimum inhibitory concentration (MIC). Minimum inhibitory concentrations (MICs) are determined by the microdilution method in a final volume of 100 μl according to protocols outlined by The Clinical and Laboratory Standards Institute (CLSI). Performance standards for reference strains are assessed within the same experimental design to maintain quality control. See, for example, Clinical Laboratory Standards Institute: Methods for dilution antimicrobial susceptibility tests for bacteria that grow aerobically M7-A8. Approved Standard-Eighth Edition. Wayne, PA: CLSI; December 2008; and Clinical Laboratory Standards Institute: Performance Standards for Antimicrobial Susceptibility Testing M100-S20; Approved Standard-Twentieth Edition. Wayne, PA: CLSI; June 2010.
(§2) The compounds of the present disclosure were tested for antimicrobial activity. The Compounds 1-293 were run against Escherichia coli (E co/i) strain ATCC25922 and against Staphylococcus aureus (S. aureus) 11540 strain using a standard microdilution assay to determine minimum inhibitory concentrations (MICs). […] It will be recognized by one skilled in the art that the compounds can be assessed against other bacterial organisms and that the presentation of data for activity against Escherichia coli and Staphylococcus aureus are illustrative and in no way is intended to limit the scope of the present disclosure. The compounds of the present disclosure can be assayed against a range of other microorganisms depending upon the performance activity desired to be gathered. Furthermore, the “+” and “−” representation and the selection of a cutoff value of 16 micrograms/mL is also illustrative and in no way is intended to limit the scope of the present disclosure.

[2] = tested on: Escherichia coli strain ATCC25922; assay: Standard microdilution MIC assay, E. coli; type: cell-based
Procedure: as §1, §2

MIC [1] | MIC [2] | SMILES
≤ 16 µg/mL | ≤ 16 µg/mL | C=C[C@@H](CCNC(=N)CF)NCc1ccc(-n2cc3cc(-c4cc(CCC[C@@H](N)CO)cc(Cl)c4F)[nH]c3nc2=O)cc1 [Compound 2]
≤ 16 µg/mL | ≤ 16 µg/mL | C=C[C@@H](CCNC(C)=N)OCc1ccc(-n2cc3cc(-c4cc(CCC[C@H](C)N)cc(Cl)c4F)[nH]c3nc2=O)cc1 [Compound 3]
≤ 16 µg/mL | ≤ 16 µg/mL | CC(=N)NCC[C@H]1CNC[C@@H](c2ccc(-n3cc4cc(-c5cc(CCC[C@H](C)N)cc(Cl)c5F)[nH]c4nc3=O)cc2)O1 [Compound 4]
≤ 16 µg/mL | ≤ 16 µg/mL | C=CC(CCNC(C)=N)NCc1ccc(-n2cc3cc(-c4cc(CCCC(C)(C)N)cc(Cl)c4F)[nH]c3nc2=O)cc1 (centres unmarked) [Compound 6]
≤ 16 µg/mL | ≤ 16 µg/mL | CC(=N)NCC[C@@H]1CCC[C@@H](c2ccc(-n3cc4cc(-c5cc(CCCC(C)(C)N)cc(Cl)c5F)[nH]c4nc3=O)cc2)N1 [Compound 7]
≤ 16 µg/mL | ≤ 16 µg/mL | C=CC(CCNC(C)=N)NCc1ccc(-n2cc3cc(-c4cc(CCC[C@@H](N)CO)cc(Cl)c4F)[nH]c3nc2=O)cc1 (some centres unmarked) [Compound 8]
≤ 16 µg/mL | ≤ 16 µg/mL | C=CC(CCNC(=N)CSC)NCc1ccc(-n2cc3cc(-c4cc(CCC[C@H](C)N)cc(Cl)c4F)[nH]c3nc2=O)cc1 (some centres unmarked) [Compound 9]
≤ 16 µg/mL | ≤ 16 µg/mL | C=CC(CCNC(=N)CCOCC)NCc1ccc(-n2cc3cc(-c4cc(CCC[C@H](C)N)cc(Cl)c4F)[nH]c3nc2=O)cc1 (some centres unmarked) [Compound 10]
≤ 16 µg/mL | > 16 µg/mL | C=CC(CCNC(C)=N)NCc1ccc(-n2cc3cc(-c4cc(CCC[C@@H](N)C(F)(F)F)cc(Cl)c4F)[nH]c3nc2=O)cc1 (some centres unmarked) [Compound 11]
≤ 16 µg/mL | ≤ 16 µg/mL | CC(C)(N)CCCc1cc(Cl)c(F)c(-c2cc3cn(-c4ccc([C@@H]5CCC[C@@H](CCNC(=N)CF)N5)cc4)c(=O)nc3[nH]2)c1 [Compound 12]
> 16 µg/mL | > 16 µg/mL | C=CC(CCNC(=N)CF)NCc1ccc(-n2cc3cc(-c4cc(CCC[C@@H](N)C(F)(F)F)cc(Cl)c4F)[nH]c3nc2=O)cc1 (some centres unmarked) [Compound 13]
≤ 16 µg/mL | ≤ 16 µg/mL | C=C[C@@H](CCNC(C)=N)NCc1ccc(-n2cc3cc(-c4cc(CCC[C@H](C)N)cc(Cl)c4F)[nH]c3nc2=O)cc1 [Compound 14]
≤ 16 µg/mL | ≤ 16 µg/mL | C=C[C@@H](CCNC(=N)CCO)NCc1ccc(-n2cc3cc(-c4cc(CCC[C@H](C)N)cc(Cl)c4F)[nH]c3nc2=O)cc1 [Compound 15]
≤ 16 µg/mL | ≤ 16 µg/mL | C=CC(CCNC(=N)CC(F)(F)F)NCc1ccc(-n2cc3cc(-c4cc(CCC[C@H](C)N)cc(Cl)c4F)[nH]c3nc2=O)cc1 (some centres unmarked) [Compound 16]
≤ 16 µg/mL | ≤ 16 µg/mL | CC(=N)NCC[C@H](CN)NCc1ccc(-n2cc3cc(-c4cc(CCC[C@H](C)N)cc(Cl)c4F)[nH]c3nc2=O)cc1 [Compound 17]
≤ 16 µg/mL | ≤ 16 µg/mL | CC(=N)NCC[C@H](CO)NCc1ccc(-n2cc3cc(-c4cc(CCC[C@H](C)N)cc(Cl)c4F)[nH]c3nc2=O)cc1 [Compound 18]
≤ 16 µg/mL | ≤ 16 µg/mL | CC(=N)NCC[C@H](CNc1ncc[nH]1)NCc1ccc(-n2cc3cc(-c4cc(CCC[C@H](C)N)cc(Cl)c4F)[nH]c3nc2=O)cc1 [Compound 19]
≤ 16 µg/mL | ≤ 16 µg/mL | C[C@H](N)CCCc1cc(Cl)c(F)c(-c2cc3cn(-c4ccc(CN[C@@H](CN)CCNC(=N)CF)cc4)c(=O)nc3[nH]2)c1 [Compound 20]
≤ 16 µg/mL | ≤ 16 µg/mL | C[C@H](N)CCCc1cc(Cl)c(F)c(-c2cc3cn(-c4ccc(CN[C@H](CCNC(=N)CF)CNc5ncc[nH]5)cc4)c(=O)nc3[nH]2)c1 [Compound 21]
≤ 16 µg/mL | ≤ 16 µg/mL | C=CC(CCNC(=N)CF)NCc1ccc(-n2cc3cc(-c4cc(CCCC(C)(C)N)cc(Cl)c4F)[nH]c3nc2=O)cc1 (centres unmarked) [Compound 22]
≤ 16 µg/mL | ≤ 16 µg/mL | CC(=N)NCC[C@@H]1CCC[C@@H](c2ccc(-n3cc4cc(-c5cc(CCC(C)(C)CN)cc(Cl)c5F)[nH]c4nc3=O)cc2)N1 [Compound 24]
≤ 16 µg/mL | ≤ 16 µg/mL | CC(C)(CN)CCc1cc(Cl)c(F)c(-c2cc3cn(-c4ccc([C@@H]5CCC[C@@H](CCNC(=N)CF)N5)cc4)c(=O)nc3[nH]2)c1 [Compound 25]
≤ 16 µg/mL | ≤ 16 µg/mL | C=CC(CCNC(C)=N)NCc1ccc(-n2cc3cc(-c4cc(CCC(C)(C)CN)cc(Cl)c4F)[nH]c3nc2=O)cc1 (centres unmarked) [Compound 26]

MIC [1] | MIC [2] | SMILES
≤ 16 µg/mL | ≤ 16 µg/mL | C=CC(CCNC(=N)CF)NCc1ccc(-n2cc3cc(-c4cc(CCC(C)(C)CN)cc(Cl)c4F)[nH]c3nc2=O)cc1 (centres unmarked) [Compound 27]
≤ 16 µg/mL | ≤ 16 µg/mL | C[C@H](N)CCCc1cc(Cl)c(F)c(-c2cc3cn(-c4ccc([C@@H]5CNC[C@H](CCNC(=N)CF)O5)cc4)c(=O)nc3[nH]2)c1 [Compound 28]
≤ 16 µg/mL | ≤ 16 µg/mL | CC(=N)NCC[C@@H]1CCC[C@@H](c2ccc(-n3cc4cc(-c5cc(CCC[C@H](C)NC(C)=N)cc(Cl)c5F)[nH]c4nc3=O)cc2)N1 [Compound 29]
≤ 16 µg/mL | ≤ 16 µg/mL | C=C[C@@H](N)CCCc1cc(Cl)c(F)c(-c2cc3cn(-c4ccc(CN[C@@H](C=C)CCNC(C)=N)cc4)c(=O)nc3[nH]2)c1 [Compound 30]
≤ 16 µg/mL | ≤ 16 µg/mL | C=C[C@@H](N)CCCc1cc(Cl)c(F)c(-c2cc3cn(-c4ccc(CN[C@H](C=C)CCNC(C)=N)cc4)c(=O)nc3[nH]2)c1 [Compound 31]
≤ 16 µg/mL | ≤ 16 µg/mL | CC(=N)NCC[C@@H]1CNC[C@@H](c2ccc(-n3cc4cc(-c5cc(CCC[C@H](C)N)cc(Cl)c5F)[nH]c4nc3=O)cc2)O1 [Compound 32]
≤ 16 µg/mL | ≤ 16 µg/mL | C=CCC(=N)NCCC(C=C)NCc1ccc(-n2cc3cc(-c4cc(CCC[C@H](C)N)cc(Cl)c4F)[nH]c3nc2=O)cc1 (some centres unmarked) [Compound 33]
≤ 16 µg/mL | ≤ 16 µg/mL | C=CC(CCNC(=N)COC)NCc1ccc(-n2cc3cc(-c4cc(CCC[C@H](C)N)cc(Cl)c4F)[nH]c3nc2=O)cc1 (some centres unmarked) [Compound 34]
≤ 16 µg/mL | ≤ 16 µg/mL | CC(=N)NCC[C@H](CO)NCc1ccc(-n2cc3cc(-c4cc(CCC[C@@H](N)CO)cc(Cl)c4F)[nH]c3nc2=O)cc1 [Compound 35]
≤ 16 µg/mL | ≤ 16 µg/mL | C=C[C@@H](N)CCCc1cc(Cl)c(F)c(-c2cc3cn(-c4ccc(CN[C@@H](C=C)CCNC(=N)CF)cc4)c(=O)nc3[nH]2)c1 [Compound 37]
≤ 16 µg/mL | ≤ 16 µg/mL | C=C[C@@H](N)CCCc1cc(Cl)c(F)c(-c2cc3cn(-c4ccc(CN[C@H](C=C)CCNC(=N)CF)cc4)c(=O)nc3[nH]2)c1 [Compound 38]
≤ 16 µg/mL | ≤ 16 µg/mL | C=C[C@@H](N)CCCc1cc(Cl)c(F)c(-c2cc3cn(-c4ccc(CN[C@@H](CO)CCNC(C)=N)cc4)c(=O)nc3[nH]2)c1 [Compound 39]
≤ 16 µg/mL | ≤ 16 µg/mL | CC(=N)NCC[C@H](CO)NCc1ccc(-n2cc3cc(-c4cc(CCCC(C)(C)N)cc(Cl)c4F)[nH]c3nc2=O)cc1 [Compound 40]
≤ 16 µg/mL | ≤ 16 µg/mL | CSCC(=N)NCC[C@H](CO)NCc1ccc(-n2cc3cc(-c4cc(CCC[C@H](C)N)cc(Cl)c4F)[nH]c3nc2=O)cc1 [Compound 41]
≤ 16 µg/mL | ≤ 16 µg/mL | CSCC(=N)NCC[C@@H]1CCC[C@@H](c2ccc(-n3cc4cc(-c5cc(CCC[C@H](C)N)cc(Cl)c5F)[nH]c4nc3=O)cc2)N1 [Compound 42]
≤ 16 µg/mL | ≤ 16 µg/mL | C=C[C@@H](CCNC(=N)CF)NCc1ccc(-n2cc3cc(-c4cc(CCC[C@@H](N)C(F)(F)F)cc(Cl)c4F)[nH]c3nc2=O)cc1 [Compound 43]
≤ 16 µg/mL | > 16 µg/mL | C=C[C@H](CCNC(=N)CF)NCc1ccc(-n2cc3cc(-c4cc(CCC[C@@H](N)C(F)(F)F)cc(Cl)c4F)[nH]c3nc2=O)cc1 [Compound 44]
≤ 16 µg/mL | ≤ 16 µg/mL | CC(=N)NCC[C@@H]1CNC[C@H](c2ccc(-n3cc4cc(-c5cc(CCC[C@H](C)N)cc(Cl)c5F)[nH]c4nc3=O)cc2)N1 [Compound 45]
≤ 16 µg/mL | ≤ 16 µg/mL | C[C@H](N)CCCc1cc(Cl)c(F)c(-c2cc3cn(-c4ccc([C@H]5CNC[C@@H](CCNC(=N)CF)N5)cc4)c(=O)nc3[nH]2)c1 [Compound 46]
≤ 16 µg/mL | ≤ 16 µg/mL | CC(=N)NCC[C@@H]1COC[C@@H](c2ccc(-n3cc4cc(-c5cc(CCC[C@H](C)N)cc(Cl)c5F)[nH]c4nc3=O)cc2)N1 [Compound 47]
≤ 16 µg/mL | ≤ 16 µg/mL | CC(=N)NCC[C@H]1CNC[C@@H](c2ccc(-n3cc4cc(-c5cc(CCC[C@H](C)N)cc(Cl)c5F)[nH]c4nc3=O)cc2)N1 [Compound 48]
≤ 16 µg/mL | ≤ 16 µg/mL | C[C@H](N)CCCc1cc(Cl)c(F)c(-c2cc3cn(-c4ccc([C@@H]5CNC[C@H](CCNC(=N)CF)N5)cc4)c(=O)nc3[nH]2)c1 [Compound 49]
≤ 16 µg/mL | ≤ 16 µg/mL | C[C@H](N)CCCc1cc(Cl)c(F)c(-c2cc3cn(-c4ccc([C@@H]5CNC[C@@H](CCNC(=N)CF)N5)cc4)c(=O)nc3[nH]2)c1 [Compound 51]
